According to paper PMC5698089 (Archives of biochemistry and biophysics, 2017):

Legend:
Assay in all cases: surface plasmon resonance, immobilized protein, […] model
Assay type in all cases: binding
[1] = target: CD36 (Cluster determinant 36) (Homo sapiens, UniProt P16671)
[2] = target: T1, SR-B1 (Scavenger receptor class B protein 1) (Homo sapiens, UniProt Q8WTV0)
T1 sequence (Q8WTV0 33-443 limits assumed): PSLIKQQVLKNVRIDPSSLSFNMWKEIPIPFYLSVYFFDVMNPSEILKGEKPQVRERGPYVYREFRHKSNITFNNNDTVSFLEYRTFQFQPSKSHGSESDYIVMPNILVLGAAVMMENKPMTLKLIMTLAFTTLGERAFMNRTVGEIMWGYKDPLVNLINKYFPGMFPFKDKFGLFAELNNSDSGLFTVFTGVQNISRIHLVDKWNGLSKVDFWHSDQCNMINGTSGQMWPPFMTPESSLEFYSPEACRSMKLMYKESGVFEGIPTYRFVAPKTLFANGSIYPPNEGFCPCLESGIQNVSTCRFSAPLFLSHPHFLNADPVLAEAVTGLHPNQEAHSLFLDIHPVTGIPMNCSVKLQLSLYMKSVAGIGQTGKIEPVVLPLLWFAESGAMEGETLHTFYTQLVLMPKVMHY

[3] = target: T2, SR-B2 (Scavenger receptor class B protein 2) (Homo sapiens, UniProt Q14108)
T2 sequence (Q14108 1-478): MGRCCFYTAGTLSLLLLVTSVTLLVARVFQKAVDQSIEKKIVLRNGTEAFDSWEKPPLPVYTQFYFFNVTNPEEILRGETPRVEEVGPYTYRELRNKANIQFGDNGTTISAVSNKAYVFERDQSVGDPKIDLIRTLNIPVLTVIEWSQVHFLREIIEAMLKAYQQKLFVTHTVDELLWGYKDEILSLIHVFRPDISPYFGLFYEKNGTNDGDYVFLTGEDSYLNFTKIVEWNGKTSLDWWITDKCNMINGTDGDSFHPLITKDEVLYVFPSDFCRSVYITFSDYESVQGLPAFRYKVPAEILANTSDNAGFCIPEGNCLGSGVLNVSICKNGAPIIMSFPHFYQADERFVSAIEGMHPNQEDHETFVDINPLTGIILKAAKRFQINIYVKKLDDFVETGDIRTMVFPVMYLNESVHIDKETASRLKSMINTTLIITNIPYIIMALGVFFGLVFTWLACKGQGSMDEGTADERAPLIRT

Chain of CD36 (Cluster determinant 36) (P16671 30-439 limits assumed): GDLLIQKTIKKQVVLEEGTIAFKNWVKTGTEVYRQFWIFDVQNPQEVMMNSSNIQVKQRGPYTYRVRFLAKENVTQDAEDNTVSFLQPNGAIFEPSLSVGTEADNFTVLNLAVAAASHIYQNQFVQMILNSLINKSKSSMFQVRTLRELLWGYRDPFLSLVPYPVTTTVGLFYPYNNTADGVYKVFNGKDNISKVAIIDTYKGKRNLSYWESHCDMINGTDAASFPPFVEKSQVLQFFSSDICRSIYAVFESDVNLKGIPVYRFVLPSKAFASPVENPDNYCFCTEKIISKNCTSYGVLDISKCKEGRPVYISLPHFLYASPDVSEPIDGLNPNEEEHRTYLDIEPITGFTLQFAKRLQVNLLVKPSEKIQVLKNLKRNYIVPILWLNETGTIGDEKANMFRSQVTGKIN

Row | Structure (SMILES) | Kd [1] | Kd [2] | Kd [3]
1 | CC1=C[C@H](O)CC(C)(C)[C@H]1/C=C/C(C)=C/C=C/C(C)=C/C=C/C=C(C)/C=C/C=C(C)/C=C/C1=C(C)C[C@@H](O)CC1(C)C [lutein] | 0.73 ± 0.006 µM | 2.04 ± 0.04 µM | 2.51 ± 0.04 µM
2 | CC1=C(/C=C/C(C)=C/C=C/C(C)=C/C=C/C=C(C)/C=C/C=C(C)/C=C/C2=C(C)C[C@H](O)CC2(C)C)C(C)(C)C[C@H](O)C1 [meso-zeaxanthin] | 1.66 ± 0.01 µM | 3.1 ± 0.2 µM | 3.9 ± 0.04 µM
3 | CC1=C(/C=C/C(C)=C/C=C/C(C)=C/C=C/C=C(C)/C=C/C=C(C)/C=C/C2=C(C)C[C@@H](O)CC2(C)C)C(C)(C)C[C@H](O)C1 [zeaxanthin] | 0.92 ± 0.007 µM | 1.6 ± 0.1 µM | 1.53 ± 0.04 µM
